Measured values from patent publication US5306722A, “Thymidine derivatives and therapeutic method of use” (Bristol-Myers Squibb Company, priority 1992, dated 1994).

Target: HSV-1 TK (Human alphaherpesvirus 1 strain KOS, UniProt P17402)
Test: Thymidine kinase inhibitory assay
Type: biochemical
Details: 1 μM [^3 H]thymidine, 5 mM ATP, pH 7.5, 37° C., 1 hour; 0-20 μM inhibitor; slope replots of Lineweaver-Burk plots
Description: The reaction (50 μl) was performed in: 50 mM Tris-HCl pH 7.5, 5 mM MgCl2, 30 mM KCl, 2 mM dithiothreitol, 5 mM ATP, 1 μM [^3 H]thymidine, 0-20 μM potential inhibitor, 0.075 mg/ml bovine serum albumin, 0.1 unit/ml HSV-1 TK. Incubation was at 37° C. for 1 hour. Samples (40 μl) were spotted on DE-81 filter disks, washed with 1 mM ammonium formate (pH 7), three times with water, twice with ethanol, and dried. Radioactivity was quantitated in a scintillation counter.
TK (thymidine kinase) was affinity purified from HSV-1 (KOS) infected cells by published procedures (Fyfe (1982) Mol. Pharmacol. 21:432-437 and Field et al. (1990) Antiviral Res. 13:41-52). One unit is defined as 1 nanomole thymidine phosphorylated per hour.
In Table 2, inhibition constants were determined from slope replots (1/slope vs [I]) of Lineweaver-Burk plots. "N" indicates the number of experiments, and each experiment was done in triplicate.

Sequence of HSV-1 TK (P17402 whole entry, looked up): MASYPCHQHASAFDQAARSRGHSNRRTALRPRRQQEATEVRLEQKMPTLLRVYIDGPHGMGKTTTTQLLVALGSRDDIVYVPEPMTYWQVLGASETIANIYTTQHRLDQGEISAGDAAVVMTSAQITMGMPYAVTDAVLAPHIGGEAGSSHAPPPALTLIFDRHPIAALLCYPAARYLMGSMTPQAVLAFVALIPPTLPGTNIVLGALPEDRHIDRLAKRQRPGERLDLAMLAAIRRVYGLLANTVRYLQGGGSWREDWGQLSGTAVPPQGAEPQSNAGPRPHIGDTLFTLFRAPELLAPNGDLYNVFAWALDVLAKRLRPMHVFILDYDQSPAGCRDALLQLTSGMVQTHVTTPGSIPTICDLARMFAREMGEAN

Row | Ki | SMILES
1 | 3.2 ± 0.3 µM | CO[C@H]1O[C@@H](n2cc(C)c(=O)[nH]c2=O)C[C@@H]1O (single isomer, unassigned) [Compound 2]
2 | 10.1 ± 4.7 µM | Cc1cn([C@H]2C[C@@H](O)[C@H](OCc3ccc(Br)cc3)O2)c(=O)[nH]c1=O [Compound 16]
3 | 26 µM | Cc1cn([C@H]2C[C@H](O)[C@@H](OCCc3ccccc3)O2)c(=O)[nH]c1=O [Compound 12]
4 | 4.3 ± 1.8 µM | Cc1cn([C@H]2C[C@@H](O)[C@H](OCCc3ccccc3)O2)c(=O)[nH]c1=O [Compound 13]
